# Source: ChEMBL document CHEMBL1130020, “Synthesis and characterization of technetium-99m-labeled tropanes as dopamine transporter-imaging agents” (J Med Chem, 1997)
# Target: Sodium-dependent dopamine transporter (Rattus norvegicus, UniProt P23977)
# Test: In vitro binding affinity to Dopamine transporter in rat striatal homogenates using [125I]IPT20 as the ligand
# Sodium-dependent dopamine transporter, sequence (P23977 whole entry, looked up): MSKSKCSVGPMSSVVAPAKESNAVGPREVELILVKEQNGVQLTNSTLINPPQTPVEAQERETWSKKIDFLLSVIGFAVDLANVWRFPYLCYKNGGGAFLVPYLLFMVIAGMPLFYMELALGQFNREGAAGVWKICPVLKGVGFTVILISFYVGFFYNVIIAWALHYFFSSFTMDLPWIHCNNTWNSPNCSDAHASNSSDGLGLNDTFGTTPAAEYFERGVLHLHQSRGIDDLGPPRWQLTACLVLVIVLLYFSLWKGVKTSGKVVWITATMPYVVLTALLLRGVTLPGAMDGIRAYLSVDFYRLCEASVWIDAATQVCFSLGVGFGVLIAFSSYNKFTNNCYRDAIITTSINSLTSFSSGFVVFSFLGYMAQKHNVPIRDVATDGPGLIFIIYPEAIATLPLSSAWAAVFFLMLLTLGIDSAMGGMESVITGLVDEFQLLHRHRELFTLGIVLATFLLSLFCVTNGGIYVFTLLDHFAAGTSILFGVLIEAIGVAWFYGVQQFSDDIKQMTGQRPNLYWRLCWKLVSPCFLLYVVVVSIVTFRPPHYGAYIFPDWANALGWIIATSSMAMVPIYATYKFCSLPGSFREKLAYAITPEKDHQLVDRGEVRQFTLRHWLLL
structure (smiles),measurement,value
CN1C2CCC1[C@@H](CN(CCS)CCNCCS)[C@@H](c1ccc(Cl)cc1)C2 (stereo partly specified),Ki,7 nM
